Data published in PMC10568017, “A quest for the stereo-electronic requirements for selective agonism for the neurotrophin receptors TrkA and TrkB in 17-spirocyclic-dehydroepiandrosterone derivatives” (Frontiers in Molecular Neuroscience, 2023).
Entries after “also recorded” stand apart in the source; their conditions may differ.

Key:
PC12 cells = test: CellTox assay, survival of PC12 cells under serum deprivation; format: cell-based; details: for protection of PC12 cells from serum deprivation-induced death (CellTox): compound 1 μM, NGF 100 ng/mL as control (Figure 10); for protection of PC12 cells from serum deprivation-induced cell death (CellTox): compound 500 nM, 24 h, after 4 h serum starvation, NGF 100 ng/mL as control (Figure 9)
Experimental: PC12 cells were obtained from LGC Promochem and cultured under specified conditions. Cells were grown in DMEM medium (Thermo Fischer Scientific, cat# 10566016) containing 10% horse serum (Thermo Fischer Scientific, cat# 16050122), 5% fetal bovine serum (Thermo Fischer Scientific, cat# 10270106), 100 units/mL penicillin, and 0.1 mg/mL streptomycin (Thermo Fischer Scientific, cat# 15140122) at 5% CO2 and 37°C. Cells were used between passages 5 and 20.
CellTox assay (G8742, Promega, Leiden, Belgium) was used to assess the survival of PC12 cells under serum deprivation conditions. PC12 cells were plated in 96-well plates, starved from serum for 4 h, and subsequently treated with NGF (100 ng/mL) or compound (500 nM) for 24 h. CellTox assay reagents and Hoescht (1:10,000, H3570, Invitrogen, Massachusetts, USA) were then added to each well for 30 min, and then, cells were imaged with a Zeiss AXIO Vert A1 fluorescent microscope. CellTox positive cells were normalized to the total number of cells for each image.
Initially, we tested compounds ENT-A002, ENT-A007, ENT-A009, ENTA025, ENT-A026, ENT-A033, ENT-A034, ENT-A035, ENT-A036, ENT-A037, ENT-A046, ENT-A047, ENT-A055, and ENT-A056 for their ability to protect PC12 cells from serum deprivation-induced cell death as well as for their ability to activate TrkA downstream pro-survival signaling kinases Akt and Erk1/2 (Figures 9A–C). We opted to employ PC12 cells, which express receptors TrkA and p75 and have been routinely used for investigating NGF-TrkA signaling. PC12 cells were subjected to a period of nutrient deprivation (without fetal bovine serum and horse serum in their culture medium) for 4 h. Following this, NGF (100 ng/mL) or one of the compounds (500 nM or 1 μM) was administered and allowed to interact with the cells for 24 h. Following that, CellTox and Hoescht dyes were added and cells were imaged to assess cell death. Control cases involved cells cultured in full medium (serum), cells under starvation conditions (serum-free), and cells under starvation conditions treated with DMSO (SF+DMSO).

[1] = test system: NIH-3T3 TrkB-expressing cell line; test: CellTox Green cytotoxicity assay in NIH-3T3 cells stable transfected with TrkB under serum deprivation; format: cell-based; details: compound 1 μM, 24 h, after 24 h serum starvation; BDNF 500 ng/mL as control
Experimental: We tested compounds on three cellular systems, primary cortical astrocytes from 2-day-old mice (as a natively TrkB-expressing neuronal population), and NIH-3T3 fibroblasts stable transfected with TrkB and NIH-3T3 naïve cells. Cells were grown with high-glucose DMEM medium supplemented with 10% fetal bovine serum (FBS), 100 μg/mL streptomycin, and 100 units/mL penicillin at 37°C in a humidified 5% CO2 atmosphere. Phosphorylation results presented here are in primary astrocytes, and cell toxicity assay results are in NIH-3T3 stable transfected cells with TrkB.
NIH-3T3 stable transfected cells with TrkB were plated in 96-well plates at a density of 10,000 cells/well, before carrying out serum starvation for 24 h. Cells were then treated for 24 h with either BDNF at 500 ng/mL (control) or the compounds at 1 μM.
For the cell toxicity assay, we used CellTox™ Green Dye (2,000 × , Promega) for the visualization of dead cells and Hoechst 33,342 solution (10,000 × ) for total cells. A ZEISS Axio Vert.A1 microscope was used for image capture, and the ImageJ software (https://imagej.nih.gov/ij/) was used for analysis. The number of CellTox positive cells was normalized against the total number of cells observed in each image.
The NIH-3T3 TrkB cell line, which is stable and transfected to specifically express the TrkB receptor, was used for the screening of the new compounds for their ability to protect cells from serum deprivation-induced apoptosis through the activation of the TrkB receptor. Cell death was induced by serum deprivation for 24 h and then BDNF (500 ng/mL), the native neurotrophin ligand of the TrkB receptor, or compounds ENT-A007, ENT-A009, ENTA025, ENT-A026, ENT-A033, ENT-A034, ENT-A035, ENT-A036, ENT-A037, ENT-A046, ENT-A047, ENT-A055, and ENT-A056 (1 μM) were added to the media for 24 h.

[2] = Metabolic stability in pooled human liver microsomes; format: in vitro ADME; details: 1 μM; for residual of time zero: pooled human liver microsomes 0.5 mg/mL, t = 60 min, NADPH; for parent structure loss (depletion) class: pooled human liver microsomes, 60 min
Experimental: For metabolic stability assessment, pooled human liver microsomes were employed at 0.5 mg/mL. Incubation conditions were optimized to ensure linear metabolite formation with respect to protein concentration and reaction time. All test compounds were assessed at 1 μM based on our ADMET standard operating procedures and protocols, also published previously (1 μM was selected based on our ADMET standard operating procedures and protocols also published previously) (Rogdakis et al., [2022]; Yilmaz et al., [2022]). Approximately 1 mM of NADPH served as a cofactor. Reactions took place in triplicates at 37°C. Negative and positive controls (low vs. rapid clearance) were included for low vs. rapid clearance. After 60 min, reactions were terminated.
Parent structure loss is classified as very slow (<5%), slow (5–19%), moderate (20–50%), fast (50–80%), or very fast (>80%). Such categories have been defined according to set criteria, namely, high metabolism (t1/2 value of <30 min), moderate metabolism (30 min <t1/2 value of <60 min), and low metabolism (t1/2 value of >60 min) (EMA, [2012], [2013]; FDA, [2020]).

Structure (SMILES)	protection of PC12 cells from serum deprivation-induced death (CellTox) (PC12 cells)	protection of PC12 cells from serum deprivation-induced cell death (CellTox) (PC12 cells)	protection of NIH-3T3-TrkB cells from serum deprivation-induced cell death (CellTox) [1]	further results
CC=CC1=CCC2(CCC3C4CC=C5CC(O)CCC5(C)C4CCC32C)OC1 [ENT-A068, (E, Z) (3S,17R)-5′-(prop-1-en-1-yl)-3′,6′-dihydrospiro[5-androstene-17,2′-pyran]-3-ol]	found to promote PC12 cell survival during stress conditions; also recorded: promote cell survival as well as NGF does under stress conditions			
CC12CCC(O)CC1=CCC1C2CCC2(C)C1CCC21CC=C(C=C2CCC2)CO1 [ENT-A065, (3S,17R)-5′-(cyclobutylidenemethyl)-3′,6′-dihydrospiro[5-androstene-17,2′-pyran]-3-ol]	promote cell survival as well as NGF does under stress conditions			
C[C@]12CC[C@H](O)CC1=CC[C@@H]1[C@@H]2CC[C@@]2(C)[C@H]1CCC21CC(=CC(=O)O)C1 (stereo partly drawn) [ENT-A080]				melting point: 221 °C (dec.)
COC(=O)CSCC1=CCC2(CCC3C4CC=C5CC(O)CCC5(C)C4CCC32C)OC1 [ENT-A026, Methyl (3S,17R)-3-hydroxy-3’,6’-dihydrospiro[5-androstene-17,2’-pyran]-5’-yl-methylthio acetate]		none of these compounds provided any protective effects	none of these compounds provided any protective effects	
COc1ccc(COCC2=CC[C@@]3(CC[C@H]4[C@@H]5CC=C6C[C@@H](O)CC[C@]6(C)[C@H]5CC[C@@]43C)OC2)cc1 [ENT-A035]		none of these compounds provided any protective effects	none of these compounds provided any protective effects	
C[C@]12CC[C@H](O)CC1=CC[C@@H]1[C@@H]2CC[C@@]2(C)[C@H]1CC[C@@]21CC=C(Cn2cc(CO)nn2)CO1 [ENT-A037, (3S,17R)-5′-[(4-(hydroxymethyl)-1H-1,2,3-triazol-1-yl)methyl]-3′,6′-dihydrospiro[5-androstene-17,2′-pyran]-3-ol]				melting point: 202 to 204 °C
CC12CCC(O)CC1=CCC1C2CCC2(C)C1CCC21CC=C(CC#N)CO1 [ENT-A033, (3S,17R)-3-hydroxy-3′,6′-dihydrospiro[5-androstene-17,2′-pyran]-5′-yl-acetonitrile]		none of these compounds provided any protective effects	none of these compounds provided any protective effects	
C[C@]12CC[C@H](O)CC1=CC[C@@H]1[C@@H]2CC[C@@]2(C)[C@H]1CC[C@@]21CC=CCO1 [ENT-A002, (3S,17R)-3′,6′-dihydrospiro[5-androstene-17,2′-pyran]-3-ol]		did not show any protective effects	did not show any protective effects	
C[C@]12CC[C@H](O)CC1=CC[C@@H]1[C@@H]2CC[C@@]2(C)[C@H]1CCC21CC(=CC#N)C1 (stereo partly drawn) [ENT-A077]				melting point: 161 to 163 °C
CCC1CCC2(CCC3C4CC=C5CC(O)CCC5(C)C4CCC32C)OC1 [ENT-A069, (3S,17R)-5′-(ethyl)-3′,6′-tetrahydrospiro[5-androstene-17,2′-pyran]-3-ol]	found to promote PC12 cell survival during stress conditions; also recorded: promote cell survival as well as NGF does under stress conditions			residual of time zero [2]: 95%; parent structure loss (depletion) class [2]: slow (slow (5–19%))
CCC1=CCC2(CCC3C4CC=C5CC(O)CCC5(C)C4CCC32C)OC1 [ENT-A070, (3S,17R)-5′-ethyl-3′,6′-dihydrospiro[5-androstene-17,2′-pyran]-3-ol]	found to promote PC12 cell survival during stress conditions; also recorded: promote cell survival as well as NGF does under stress conditions			residual of time zero [2]: > 95%; parent structure loss (depletion) class [2]: very slow (very slow (<5%))
CC12CCC(O)CC1=CCC1C2CCC2(C)C1CCC21CC=C(C=CBr)CO1 [ENT-A066, (3S,17R)-5′-(2-bromovinyl)-3′,6′-dihydrospiro[5-androstene-17,2′-pyran]-3-ol]	found to promote PC12 cell survival during stress conditions; also recorded: promote cell survival as well as NGF does under stress conditions			residual of time zero [2]: > 95%; parent structure loss (depletion) class [2]: very slow (very slow (<5%))
C[C@]12CC[C@H](O)CC1=CC[C@@H]1[C@@H]2CC[C@@]2(C)[C@H]1CC[C@@]21CC=C(CO)CO1 [ENT-A008]		none of these compounds provided any protective effects	none of these compounds provided any protective effects	
C[C@]12CC[C@H](O)CC1=CC[C@@H]1[C@@H]2CC[C@@]2(C)[C@H]1CC[C@@]21CC=C(CF)CO1 [ENT-A034]		none of these compounds provided any protective effects	none of these compounds provided any protective effects	
C[C@]12CC[C@H](O)CC1=CC[C@@H]1[C@@H]2CC[C@@]2(C)[C@H]1CC[C@@]21CC=C(Cn2cc(CC3CCCCC3)nn2)CO1 [ENT-A047, (3S,17R)-5′-[(4-(cyclohexylmethyl)-1H-1,2,3-triazol-1-yl)methyl]-3′,6′-dihydrospiro[5-androstene-17,2′-pyran]-3-ol]				melting point: 181 °C (dec.)
